Measurements published in ChEMBL document CHEMBL5463727, “Data for DCP probe SGK3-PROTAC1” (2023).

Columns and labels:
[1] = molecular target: Myosin light chain kinase, smooth muscle (Homo sapiens) (UniProt Q15746); assay: % Activity remaining of SmMLCK in the Dundee kinase panel at 1.0 µM; details: Compound concentration 1.0 uM
[2] = molecular target: Serine/threonine-protein kinase TAO1 (Homo sapiens) (UniProt Q7L7X3); assay: % Activity remaining of TAO1 in the Dundee kinase panel at 1.0 µM; details: Compound concentration 1.0 uM
[3] = molecular target: Receptor-interacting serine/threonine-protein kinase 2 (Homo sapiens) (UniProt O43353); assay: % Activity remaining of RIPK2 in the Dundee kinase panel at 1.0 µM; details: Compound concentration 1.0 uM
[4] = molecular target: Serine/threonine-protein kinase 3 (Homo sapiens) (UniProt Q13188); assay: % Activity remaining of MST2 in the Dundee kinase panel at 1.0 µM; details: Compound concentration 1.0 uM
[5] = molecular target: MAP kinase-activated protein kinase 2 (Homo sapiens) (UniProt P49137); assay: % Activity remaining of MAPKAP-K2 in the Dundee kinase panel at 1.0 µM; details: Compound concentration 1.0 uM
[6] = molecular target: Serine/threonine-protein kinase pim-1 (Homo sapiens) (UniProt P11309); assay: % Activity remaining of PIM1 in the Dundee kinase panel at 1.0 µM; details: Compound concentration 1.0 uM
[7] = molecular target: Tyrosine-protein kinase JAK2 (Homo sapiens) (UniProt O60674); assay: % Activity remaining of JAK2 in the Dundee kinase panel at 1.0 µM; details: Compound concentration 1.0 uM
[8] = molecular target: Serine/threonine-protein kinase D1 (Homo sapiens) (UniProt Q15139); assay: % Activity remaining of PKD1 in the Dundee kinase panel at 1.0 µM; details: Compound concentration 1.0 uM
[9] = molecular target: Serine/threonine-protein kinase ULK2 (Homo sapiens) (UniProt Q8IYT8); assay: % Activity remaining of ULK2 in the Dundee kinase panel at 1.0 µM; details: Compound concentration 1.0 uM
[10] = molecular target: Maternal embryonic leucine zipper kinase (Homo sapiens) (UniProt Q14680); assay: % Activity remaining of MELK in the Dundee kinase panel at 1.0 µM; details: Compound concentration 1.0 uM
[11] = molecular target: Dual specificity mitogen-activated protein kinase kinase 6 (Homo sapiens) (UniProt P52564); assay: % Activity remaining of MKK6 in the Dundee kinase panel at 1.0 µM; details: Compound concentration 1.0 uM
[12] = molecular target: Serine/threonine-protein kinase MARK2 (Homo sapiens) (UniProt Q7KZI7); assay: % Activity remaining of MARK2 in the Dundee kinase panel at 1.0 µM; details: Compound concentration 1.0 uM
[13] = molecular target: MAP/microtubule affinity-regulating kinase 3 (Homo sapiens) (UniProt P27448); assay: % Activity remaining of MARK3 in the Dundee kinase panel at 1.0 µM; details: Compound concentration 1.0 uM
[14] = molecular target: Dual specificity mitogen-activated protein kinase kinase 1 (Homo sapiens) (UniProt Q02750); assay: % Activity remaining of MKK1 in the Dundee kinase panel at 1.0 µM; details: Compound concentration 1.0 uM
[15] = molecular target: Mitogen-activated protein kinase kinase kinase kinase 3 (Homo sapiens) (UniProt Q8IVH8); assay: % Activity remaining of MAP4K3 in the Dundee kinase panel at 1.0 µM; details: Compound concentration 1.0 uM
[16] = molecular target: Calcium/calmodulin-dependent protein kinase type 1 (Homo sapiens) (UniProt Q14012); assay: % Activity remaining of CAMK1 in the Dundee kinase panel at 1.0 µM; details: Compound concentration 1.0 uM
[17] = molecular target: Ribosomal protein S6 kinase beta-1 (Homo sapiens, UniProt P23443); assay: % Activity remaining of S6K1 in the Dundee kinase panel at 1.0 µM; details: for % Activity remaining: Compound concentration 1.0 uM
[18] = molecular target: Mitogen-activated protein kinase 7 (Homo sapiens) (UniProt Q13164); assay: % Activity remaining of ERK5 in the Dundee kinase panel at 1.0 µM; details: Compound concentration 1.0 uM
[19] = molecular target: Ribosomal protein S6 kinase alpha-1 (Homo sapiens) (UniProt Q15418); assay: % Activity remaining of RSK1 in the Dundee kinase panel at 1.0 µM; details: Compound concentration 1.0 uM
[20] = molecular target: Mitogen-activated protein kinase kinase kinase 1 (Homo sapiens) (UniProt Q13233); assay: % Activity remaining of MEKK1 in the Dundee kinase panel at 1.0 µM; details: Compound concentration 1.0 uM
[21] = molecular target: Dual specificity protein kinase CLK2 (Homo sapiens) (UniProt P49760); assay: % Activity remaining of CLK2 in the Dundee kinase panel at 1.0 µM; details: Compound concentration 1.0 uM
[22] = molecular target: Serine/threonine-protein kinase STK11 (Homo sapiens) (UniProt Q15831); assay: % Activity remaining of LKB1 in the Dundee kinase panel at 1.0 µM; details: Compound concentration 1.0 uM
[23] = molecular target: Mitogen-activated protein kinase 15 (Homo sapiens) (UniProt Q8TD08); assay: % Activity remaining of ERK8 in the Dundee kinase panel at 1.0 µM; details: Compound concentration 1.0 uM
[24] = molecular target: Misshapen-like kinase 1 (Homo sapiens) (UniProt Q8N4C8); assay: % Activity remaining of MINK1 in the Dundee kinase panel at 1.0 µM; details: Compound concentration 1.0 uM
[25] = molecular target: Insulin receptor (Homo sapiens) (UniProt P06213); assay: % Activity remaining of IR in the Dundee kinase panel at 1.0 µM; details: Compound concentration 1.0 uM
[26] = molecular target: Serine/threonine-protein kinase PAK 2 (Homo sapiens) (UniProt Q13177); assay: % Activity remaining of PAK2 in the Dundee kinase panel at 1.0 µM; details: Compound concentration 1.0 uM
[27] = molecular target: Mitogen-activated protein kinase 8 (Homo sapiens) (UniProt P45983); assay: % Activity remaining of JNK1 in the Dundee kinase panel at 1.0 µM; details: Compound concentration 1.0 uM
[28] = molecular target: Mitogen-activated protein kinase 9 (Homo sapiens) (UniProt P45984); assay: % Activity remaining of JNK2 in the Dundee kinase panel at 1.0 µM; details: Compound concentration 1.0 uM
[29] = molecular target: MAP kinase-activated protein kinase 3 (Homo sapiens) (UniProt Q16644); assay: % Activity remaining of MAPKAP-K3 in the Dundee kinase panel at 1.0 µM; details: Compound concentration 1.0 uM
[30] = molecular target: Proto-oncogene tyrosine-protein kinase Src (Homo sapiens) (UniProt P12931); assay: % Activity remaining of Src in the Dundee kinase panel at 1.0 µM; details: Compound concentration 1.0 uM
[31] = molecular target: Ephrin type-B receptor 2 (Homo sapiens) (UniProt P29323); assay: % Activity remaining of EPH-B2 in the Dundee kinase panel at 1.0 µM; details: Compound concentration 1.0 uM
[32] = molecular target: Serine/threonine-protein kinase PAK 5 (Homo sapiens) (UniProt Q9P286); assay: % Activity remaining of PAK5 in the Dundee kinase panel at 1.0 µM; details: Compound concentration 1.0 uM
[33] = molecular target: Serine/threonine-protein kinase BRSK2 (Homo sapiens) (UniProt Q8IWQ3); assay: % Activity remaining of BRSK2 in the Dundee kinase panel at 1.0 µM; details: Compound concentration 1.0 uM
[34] = molecular target: Serine/threonine-protein kinase BRSK1 (Homo sapiens) (UniProt Q8TDC3); assay: % Activity remaining of BRSK1 in the Dundee kinase panel at 1.0 µM; details: Compound concentration 1.0 uM
[35] = molecular target: Homeodomain-interacting protein kinase 2 (Homo sapiens) (UniProt Q9H2X6); assay: % Activity remaining of HIPK2 in the Dundee kinase panel at 1.0 µM; details: Compound concentration 1.0 uM
[36] = molecular target: Dual specificity testis-specific protein kinase 1 (Homo sapiens) (UniProt Q15569); assay: % Activity remaining of TESK1 in the Dundee kinase panel at 1.0 µM; details: Compound concentration 1.0 uM
[37] = molecular target: Mitogen-activated protein kinase kinase kinase kinase 5 (Homo sapiens) (UniProt Q9Y4K4); assay: % Activity remaining of MAP4K5 in the Dundee kinase panel at 1.0 µM; details: Compound concentration 1.0 uM
[38] = molecular target: Ephrin type-B receptor 3 (Homo sapiens) (UniProt P54753); assay: % Activity remaining of EPH-B3 in the Dundee kinase panel at 1.0 µM; details: Compound concentration 1.0 uM
[39] = molecular target: Serine/threonine-protein kinase SIK3 (Homo sapiens) (UniProt Q9Y2K2); assay: % Activity remaining of SIK3 in the Dundee kinase panel at 1.0 µM; details: Compound concentration 1.0 uM

Chain of Mitogen-activated protein kinase 9 (Homo sapiens) (P45984 whole entry, looked up): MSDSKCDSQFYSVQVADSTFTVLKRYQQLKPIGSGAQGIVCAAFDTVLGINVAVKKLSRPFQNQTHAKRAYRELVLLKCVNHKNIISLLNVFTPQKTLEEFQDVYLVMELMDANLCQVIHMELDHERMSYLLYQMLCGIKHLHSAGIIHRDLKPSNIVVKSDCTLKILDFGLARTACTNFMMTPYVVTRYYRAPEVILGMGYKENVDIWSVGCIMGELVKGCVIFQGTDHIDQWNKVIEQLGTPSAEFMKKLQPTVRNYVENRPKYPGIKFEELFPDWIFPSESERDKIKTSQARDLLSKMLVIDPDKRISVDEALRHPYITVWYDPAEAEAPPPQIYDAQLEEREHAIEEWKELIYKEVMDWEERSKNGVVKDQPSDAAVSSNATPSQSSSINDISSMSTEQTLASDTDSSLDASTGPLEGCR
Chain of Mitogen-activated protein kinase 7 (Homo sapiens) (Q13164 2-816 limits assumed): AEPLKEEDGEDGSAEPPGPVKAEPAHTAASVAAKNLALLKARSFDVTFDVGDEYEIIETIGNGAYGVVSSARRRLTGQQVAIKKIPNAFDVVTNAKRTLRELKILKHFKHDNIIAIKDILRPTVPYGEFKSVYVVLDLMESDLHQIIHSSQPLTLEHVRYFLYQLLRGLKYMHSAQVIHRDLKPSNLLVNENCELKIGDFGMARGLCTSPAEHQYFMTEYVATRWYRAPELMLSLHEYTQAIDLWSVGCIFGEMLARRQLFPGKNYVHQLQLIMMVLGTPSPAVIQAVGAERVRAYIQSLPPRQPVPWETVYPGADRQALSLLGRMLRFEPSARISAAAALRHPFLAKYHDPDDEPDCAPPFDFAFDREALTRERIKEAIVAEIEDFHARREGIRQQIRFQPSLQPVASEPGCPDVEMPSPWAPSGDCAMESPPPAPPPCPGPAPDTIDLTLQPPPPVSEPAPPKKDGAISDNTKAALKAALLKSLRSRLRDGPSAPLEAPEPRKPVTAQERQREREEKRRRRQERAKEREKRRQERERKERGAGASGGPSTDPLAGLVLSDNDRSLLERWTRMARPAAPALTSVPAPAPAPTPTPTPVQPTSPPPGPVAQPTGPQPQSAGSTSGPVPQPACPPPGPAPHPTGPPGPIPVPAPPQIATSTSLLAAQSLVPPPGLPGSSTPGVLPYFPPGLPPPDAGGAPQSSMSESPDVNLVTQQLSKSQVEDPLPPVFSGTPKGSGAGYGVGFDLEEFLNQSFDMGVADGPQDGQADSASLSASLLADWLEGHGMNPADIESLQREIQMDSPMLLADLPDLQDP
Chain of Serine/threonine-protein kinase BRSK2 (Homo sapiens) (Q8IWQ3 whole entry): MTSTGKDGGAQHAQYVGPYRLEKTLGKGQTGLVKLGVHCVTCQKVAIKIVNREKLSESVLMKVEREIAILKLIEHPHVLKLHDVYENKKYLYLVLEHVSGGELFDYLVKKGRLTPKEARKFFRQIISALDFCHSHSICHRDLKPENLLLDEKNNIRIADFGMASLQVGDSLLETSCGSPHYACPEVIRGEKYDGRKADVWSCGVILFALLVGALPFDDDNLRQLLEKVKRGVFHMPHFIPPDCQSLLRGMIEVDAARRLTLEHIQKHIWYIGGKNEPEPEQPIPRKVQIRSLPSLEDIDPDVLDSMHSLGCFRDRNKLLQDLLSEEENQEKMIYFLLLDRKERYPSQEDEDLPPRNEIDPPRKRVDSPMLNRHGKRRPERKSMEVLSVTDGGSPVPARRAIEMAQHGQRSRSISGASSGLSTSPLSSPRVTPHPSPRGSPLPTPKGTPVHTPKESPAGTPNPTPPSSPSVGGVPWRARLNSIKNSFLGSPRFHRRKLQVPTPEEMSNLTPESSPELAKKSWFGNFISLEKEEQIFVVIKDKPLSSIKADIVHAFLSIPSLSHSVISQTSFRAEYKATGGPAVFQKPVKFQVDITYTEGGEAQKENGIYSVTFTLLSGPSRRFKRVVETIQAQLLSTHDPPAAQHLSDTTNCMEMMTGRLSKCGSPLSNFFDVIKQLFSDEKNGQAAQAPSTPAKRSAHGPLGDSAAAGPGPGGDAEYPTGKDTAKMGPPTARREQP
Chain of Tyrosine-protein kinase JAK2 (Homo sapiens) (O60674 whole entry): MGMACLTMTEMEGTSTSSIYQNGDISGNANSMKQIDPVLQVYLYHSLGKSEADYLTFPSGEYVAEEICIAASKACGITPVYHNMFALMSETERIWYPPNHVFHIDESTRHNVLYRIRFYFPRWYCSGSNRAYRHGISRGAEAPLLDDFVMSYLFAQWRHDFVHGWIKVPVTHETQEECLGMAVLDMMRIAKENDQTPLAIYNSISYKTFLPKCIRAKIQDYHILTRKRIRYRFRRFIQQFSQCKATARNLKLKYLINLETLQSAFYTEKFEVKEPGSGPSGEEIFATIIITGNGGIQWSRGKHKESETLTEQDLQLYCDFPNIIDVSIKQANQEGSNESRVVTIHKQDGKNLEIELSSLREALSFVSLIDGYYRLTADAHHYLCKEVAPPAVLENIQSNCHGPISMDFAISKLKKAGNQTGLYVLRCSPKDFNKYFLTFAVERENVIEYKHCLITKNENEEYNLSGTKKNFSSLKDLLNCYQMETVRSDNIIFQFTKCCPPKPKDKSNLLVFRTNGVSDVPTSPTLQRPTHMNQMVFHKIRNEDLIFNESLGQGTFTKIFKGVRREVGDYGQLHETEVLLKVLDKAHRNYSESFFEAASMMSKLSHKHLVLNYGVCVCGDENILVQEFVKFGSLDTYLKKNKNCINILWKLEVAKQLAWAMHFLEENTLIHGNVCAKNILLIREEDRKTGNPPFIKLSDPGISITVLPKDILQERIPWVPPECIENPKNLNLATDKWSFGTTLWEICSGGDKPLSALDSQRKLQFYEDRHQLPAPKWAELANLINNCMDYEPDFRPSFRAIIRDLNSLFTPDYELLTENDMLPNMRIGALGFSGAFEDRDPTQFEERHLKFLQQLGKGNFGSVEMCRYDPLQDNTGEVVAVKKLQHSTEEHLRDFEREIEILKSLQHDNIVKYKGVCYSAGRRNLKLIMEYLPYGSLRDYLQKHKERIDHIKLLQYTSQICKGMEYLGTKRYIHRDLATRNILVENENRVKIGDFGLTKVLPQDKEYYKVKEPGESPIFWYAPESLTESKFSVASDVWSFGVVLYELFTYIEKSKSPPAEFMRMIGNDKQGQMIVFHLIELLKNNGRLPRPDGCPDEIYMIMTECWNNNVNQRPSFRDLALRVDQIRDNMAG
Chain of Serine/threonine-protein kinase BRSK1 (Homo sapiens) (Q8TDC3 whole entry): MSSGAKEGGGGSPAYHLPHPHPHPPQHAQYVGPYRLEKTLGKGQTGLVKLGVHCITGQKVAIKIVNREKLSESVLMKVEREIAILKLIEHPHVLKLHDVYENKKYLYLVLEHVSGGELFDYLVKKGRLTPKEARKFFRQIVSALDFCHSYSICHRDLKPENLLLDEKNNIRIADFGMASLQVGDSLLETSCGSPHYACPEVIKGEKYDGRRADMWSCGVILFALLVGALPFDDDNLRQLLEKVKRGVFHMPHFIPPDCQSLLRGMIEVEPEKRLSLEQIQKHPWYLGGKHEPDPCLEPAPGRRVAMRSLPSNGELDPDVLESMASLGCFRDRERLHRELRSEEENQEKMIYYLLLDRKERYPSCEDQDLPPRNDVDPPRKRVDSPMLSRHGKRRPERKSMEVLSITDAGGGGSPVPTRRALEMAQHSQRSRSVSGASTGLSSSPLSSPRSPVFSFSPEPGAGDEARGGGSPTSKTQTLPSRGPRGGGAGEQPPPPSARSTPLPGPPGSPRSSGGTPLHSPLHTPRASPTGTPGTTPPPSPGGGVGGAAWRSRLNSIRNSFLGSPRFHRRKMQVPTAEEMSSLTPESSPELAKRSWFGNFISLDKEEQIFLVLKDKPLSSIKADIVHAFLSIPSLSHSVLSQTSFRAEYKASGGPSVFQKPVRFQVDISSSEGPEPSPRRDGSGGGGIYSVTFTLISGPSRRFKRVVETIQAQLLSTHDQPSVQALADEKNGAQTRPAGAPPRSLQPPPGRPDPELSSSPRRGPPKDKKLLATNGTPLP
Chain of Dual specificity protein kinase CLK2 (Homo sapiens) (P49760 whole entry, looked up): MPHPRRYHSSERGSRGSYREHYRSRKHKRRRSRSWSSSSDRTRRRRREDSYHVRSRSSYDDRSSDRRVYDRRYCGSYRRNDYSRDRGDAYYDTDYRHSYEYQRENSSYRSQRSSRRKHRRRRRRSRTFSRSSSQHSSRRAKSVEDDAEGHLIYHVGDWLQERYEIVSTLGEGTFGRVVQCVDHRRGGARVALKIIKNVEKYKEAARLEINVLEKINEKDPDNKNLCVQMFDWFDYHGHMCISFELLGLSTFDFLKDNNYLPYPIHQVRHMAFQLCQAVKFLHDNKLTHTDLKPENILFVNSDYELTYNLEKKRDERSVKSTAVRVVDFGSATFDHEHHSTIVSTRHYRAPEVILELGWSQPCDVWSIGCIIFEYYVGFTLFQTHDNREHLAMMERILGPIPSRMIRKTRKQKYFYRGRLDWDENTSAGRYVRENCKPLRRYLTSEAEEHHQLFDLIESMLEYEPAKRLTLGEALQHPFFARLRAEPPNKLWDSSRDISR
Chain of Mitogen-activated protein kinase 8 (Homo sapiens) (P45983 whole entry): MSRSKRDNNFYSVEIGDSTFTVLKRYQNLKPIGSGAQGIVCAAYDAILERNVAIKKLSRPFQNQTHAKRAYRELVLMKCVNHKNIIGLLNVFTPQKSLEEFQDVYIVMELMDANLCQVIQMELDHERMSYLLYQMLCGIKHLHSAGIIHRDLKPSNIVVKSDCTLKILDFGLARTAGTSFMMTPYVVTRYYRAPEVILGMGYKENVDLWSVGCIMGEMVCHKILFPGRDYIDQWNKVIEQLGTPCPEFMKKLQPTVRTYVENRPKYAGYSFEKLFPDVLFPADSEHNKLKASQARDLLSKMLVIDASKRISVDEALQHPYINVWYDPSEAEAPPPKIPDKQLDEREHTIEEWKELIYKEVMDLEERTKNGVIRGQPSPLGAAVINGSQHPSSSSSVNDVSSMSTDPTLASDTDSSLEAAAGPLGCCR

Cc1ccc(F)c(S(=O)(=O)Nc2ccc(-c3nc(OC[C@H]4CN(CCCCCCOCCOCCOCC(=O)N[C@H](C(=O)N5C[C@@H](O)C[C@H]5C(=O)NCc5ccc(-c6scnc6C)cc5)C(C)(C)C)CCO4)c4cn[nH]c4n3)cc2)c1
% Activity remaining [1]: 70.7% | % Activity remaining [2]: 105% | % Activity remaining [3]: 94.2% | % Activity remaining [4]: 100% | % Activity remaining [5]: 91.7% | % Activity remaining [6]: 96.5% | % Activity remaining [7]: 93.6% | % Activity remaining [8]: 91.7% | % Activity remaining [9]: 117% | % Activity remaining [10]: 99.5% | % Activity remaining [11]: 108% | % Activity remaining [12]: 112% | % Activity remaining [13]: 109% | % Activity remaining [14]: 102% | % Activity remaining [15]: 95.5% | % Activity remaining [16]: 105% | IC50 [17]: 1700 nM | % Activity remaining [17]: 20.2% | % Activity remaining [18]: 108% | % Activity remaining [19]: 90.2% | % Activity remaining [20]: 128% | % Activity remaining [21]: 84.8% | % Activity remaining [22]: 112% | % Activity remaining [23]: 86.4% | % Activity remaining [24]: 116% | % Activity remaining [25]: 93.9% | % Activity remaining [26]: 98.7% | % Activity remaining [27]: 119% | % Activity remaining [28]: 109% | % Activity remaining [29]: 77% | % Activity remaining [30]: 86.8% | % Activity remaining [31]: 97.4% | % Activity remaining [32]: 105% | % Activity remaining [33]: 101% | % Activity remaining [34]: 106% | % Activity remaining [35]: 99.7% | % Activity remaining [36]: 120% | % Activity remaining [37]: 101% | % Activity remaining [38]: 104% | % Activity remaining [39]: 117%

Cc1ccc(F)c(S(=O)(=O)Nc2ccc(-c3nc(OC[C@H]4CN(CCCCCCOCCOCCOCC(=O)N[C@H](C(=O)N5C[C@H](O)C[C@H]5C(=O)NCc5ccc(-c6scnc6C)cc5)C(C)(C)C)CCO4)c4cn[nH]c4n3)cc2)c1
% Activity remaining [1]: 52.9% | % Activity remaining [2]: 99% | % Activity remaining [3]: 88.4% | % Activity remaining [4]: 112% | % Activity remaining [5]: 85.8% | % Activity remaining [6]: 94.5% | % Activity remaining [7]: 95.4% | % Activity remaining [8]: 94% | % Activity remaining [9]: 103% | % Activity remaining [10]: 91.5% | % Activity remaining [11]: 123% | % Activity remaining [12]: 102% | % Activity remaining [13]: 98.4% | % Activity remaining [14]: 106% | % Activity remaining [15]: 98.8% | % Activity remaining [16]: 86.3% | IC50 [17]: 1800 nM | % Activity remaining [17]: 19% | % Activity remaining [18]: 102% | % Activity remaining [19]: 83.2% | % Activity remaining [20]: 124% | % Activity remaining [21]: 104% | % Activity remaining [22]: 105% | % Activity remaining [23]: 94.2% | % Activity remaining [24]: 115% | % Activity remaining [25]: 103% | % Activity remaining [26]: 116% | % Activity remaining [27]: 117% | % Activity remaining [28]: 117% | % Activity remaining [29]: 79% | % Activity remaining [30]: 83.4% | % Activity remaining [31]: 93.9% | % Activity remaining [32]: 87.6% | % Activity remaining [33]: 97.2% | % Activity remaining [34]: 108% | % Activity remaining [35]: 109% | % Activity remaining [36]: 122% | % Activity remaining [37]: 98.6% | % Activity remaining [38]: 91.6% | % Activity remaining [39]: 78.7%
